From patent US20250320213A1, “Nitrogen-Containing Heterocyclic Compounds” (Pfizer Inc., priority 2024, published 2025)

Target: T1, STAT6 (Homo sapiens, UniProt P42226)
T1 construct: stably transfected HaCaT keratinocyte cell line, which expresses NanoLuc luciferase reporter gene under the transcriptional control of the STAT6 responsive promoter; endogenous in cells; host or cells: HaCaT keratinocyte reporter cell line (stably transfected with a NanoLuc reporter)
T1 sequence (P42226 1-847): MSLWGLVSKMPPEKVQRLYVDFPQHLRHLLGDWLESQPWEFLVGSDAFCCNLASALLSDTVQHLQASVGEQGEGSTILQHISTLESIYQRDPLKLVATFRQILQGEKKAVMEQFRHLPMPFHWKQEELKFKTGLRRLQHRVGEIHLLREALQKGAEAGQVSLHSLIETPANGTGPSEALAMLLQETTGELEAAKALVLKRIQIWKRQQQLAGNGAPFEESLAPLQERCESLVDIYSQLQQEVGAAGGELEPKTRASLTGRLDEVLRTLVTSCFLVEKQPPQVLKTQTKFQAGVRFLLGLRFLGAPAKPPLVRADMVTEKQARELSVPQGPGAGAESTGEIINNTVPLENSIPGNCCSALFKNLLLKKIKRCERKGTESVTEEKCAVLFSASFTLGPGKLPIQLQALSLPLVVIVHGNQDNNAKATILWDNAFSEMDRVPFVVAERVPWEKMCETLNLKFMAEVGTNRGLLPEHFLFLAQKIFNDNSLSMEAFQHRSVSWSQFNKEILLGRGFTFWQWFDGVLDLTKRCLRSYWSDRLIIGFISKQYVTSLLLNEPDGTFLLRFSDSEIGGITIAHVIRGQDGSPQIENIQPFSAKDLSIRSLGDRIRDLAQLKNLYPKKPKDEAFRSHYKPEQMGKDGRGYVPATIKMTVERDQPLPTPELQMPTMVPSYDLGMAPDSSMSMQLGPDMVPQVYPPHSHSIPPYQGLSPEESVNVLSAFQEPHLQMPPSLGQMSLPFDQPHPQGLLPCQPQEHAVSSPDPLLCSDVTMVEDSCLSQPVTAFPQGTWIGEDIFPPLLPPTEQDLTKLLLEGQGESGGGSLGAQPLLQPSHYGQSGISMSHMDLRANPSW
Assay: STAT6 Reporter Luciferase Assay (IL-13 stimulated HaCaT keratinocyte NanoLuc reporter cells)
Assay type: cell-based
Details: IL-13 stimulated HaCaT STAT6 NanoLuc reporter cells; read-out: Reporter EC50
Procedure, shortened: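 IL-13 (0.12 nM, 4 h) stimulated STAT6 reporter activity in HaCaT cells after a 2 h compound pre-incubation; NanoLuc signal was measured.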

Structure (SMILES)	EC50 [nM]
CC(C)n1nc(C(=O)NCc2ccc(NC(=O)N(C)C)cc2)c2c1CCN(c1ccc(C(=O)N3CCC4(CCC(=O)N4C)CC3)cn1)C2 [Example 564, N-(4-(3,3-dimethylureido)benzyl)-1-isopropyl-5-(5-(1-methyl-2-oxo-1,8-diazaspiro[4.5]decane-8-carbonyl)pyridin-2-yl)-4,5,6,7-tetrahydro-1H-pyrazolo[4,3-c]pyridine-3-carboxamide]	223
COCCN1CCC(CN(C)C(=O)c2ccc(N3Cc4c(C(=O)NCc5ccc(NC(=O)N(C)C)cc5)nn(C(C)C)c4[C@@H](C)C3)cc2)CC1 [Example 565, (S)-N-(4-(3,3-dimethylureido)benzyl)-1-isopropyl-5-(4-(((1-(2-methoxyethyl)piperidin-4-yl)methyl)(methyl)carbamoyl)phenyl)-7-methyl-4,5,6,7-tetrahydro-1H-pyrazolo[4,3-c]pyridine-3-carboxamide]	5
CC(C)n1nc(C(=O)NCc2ccc(NC(=O)N3CCN4CCCC[C@H]4C3)c(F)c2)c2c1[C@@H](C)CN(c1ccc(C(=O)N(C)C)cc1)C2 [Example 640, (S)-N-(4-(((S)-5-(4-(dimethylcarbamoyl)phenyl)-1-isopropyl-7-methyl-4,5,6,7-tetrahydro-1H-pyrazolo[4,3-c]pyridine-3-carboxamido)methyl)-2-fluorophenyl)octahydro-2H-pyrido[1,2-a]lpyrazine-2-carboxamide]	1
CC(C)n1nc(C(=O)NCc2ccc(NC(=O)N3CC4(CN(C)C4)C3)c(F)c2)c2c1[C@@H](C)CN(c1ccc(C(=O)N(C)C)cc1)C2 [Example 641, (S)-5-(4-(dimethylcarbamoyl)phenyl)-N-(3-fluoro-4-(6-methyl-2,6-diazaspiro[3.3]heptane-2-carboxamido)benzyl)-1-isopropyl-7-methyl-4,5,6,7-tetrahydro-1H-pyrazolo[4,3-c]pyridine-3-carboxamide]	5
CC(C)n1nc(C(=O)NCc2ccc(NC(=O)N3CCC4(CCN(C)C4)CC3)c(F)c2)c2c1[C@@H](C)CN(c1ccc(C(=O)N(C)C)cc1)C2 [Example 642, (S)-N-(4-((5-(4-(dimethylcarbamoyl)phenyl)-1-isopropyl-7-methyl-4,5,6,7-tetrahydro-1H-pyrazolo[4,3-c]pyridine-3-carboxamido)methyl)-2-fluorophenyl)-2-methyl-2,8-diazaspiro[4.5]decane-8-carboxamide]	1
CC(C)n1nc(C(=O)NCc2ccc(NC(=O)N3CCC4(CC3)CN(C)CCO4)c(F)c2)c2c1[C@@H](C)CN(c1ccc(C(=O)N(C)C)cc1)C2 [Example 643, (S)-N-(4-((5-(4-(dimethylcarbamoyl)phenyl)-1-isopropyl-7-methyl-4,5,6,7-tetrahydro-1H-pyrazolo[4,3-c]pyridine-3-carboxamido)methyl)-2-fluorophenyl)-4-methyl-1-oxa-4,9-diazaspiro[5.5]undecane-9-carboxamide]	1
CC(C)n1nc(C(=O)NCc2ccc(NC(=O)N3CCC4(CC3)CCN4C)c(F)c2)c2c1[C@@H](C)CN(c1ccc(C(=O)N(C)C)cc1)C2 [Example 645, (S)-5-(4-(dimethylcarbamoyl)phenyl)-N-(3-fluoro-4-(1-methyl-1,7-diazaspiro[3.5]nonane-7-carboxamido)benzyl)-1-isopropyl-7-methyl-4,5,6,7-tetrahydro-1H-pyrazolo[4,3-c]pyridine-3-carboxamide]	1
CC(C)n1nc(C(=O)NCc2ccc(NC(=O)N3CC4(CCCN(C)C4)C3)c(F)c2)c2c1[C@@H](C)CN(c1ccc(C(=O)N(C)C)cc1)C2 [Example 646, (S)-5-(4-(dimethylcarbamoyl)phenyl)-N-(3-fluoro-4-(6-methyl-2,6-diazaspiro[3.5]nonane-2-carboxamido)benzyl)-1-isopropyl-7-methyl-4,5,6,7-tetrahydro-1H-pyrazolo[4,3-c]pyridine-3-carboxamide]	1
CC(C)n1nc(C(=O)NCc2ccc(NC(=O)N3CCN(C)CC3)cc2)c2c1[C@@H](C)CN(c1ccc(-c3nncn3C3CC3)cn1)C2 [Example 655, (S)-5-(5-(4-cyclopropyl-4H-1,2,4-triazol-3-yl)pyridin-2-yl)-1-isopropyl-7-methyl-N-(4-(4-methylpiperazine-1-carboxamido)benzyl)-4,5,6,7-tetrahydro-1H-pyrazolo[4,3-c]pyridine-3-carboxamide]	2

The remaining lines, values ahead:

EC50 [nM]	Structure (SMILES)
202	CCS(=O)(=O)N1CCN(C(=O)c2ccc(N3CCc4c(c(C(=O)NCc5ccc(NC(=O)N(C)C)cc5)nn4C(C)C)C3)nc2)CC1 [Example 563, N-(4-(3,3-dimethylureido)benzyl)-5-(5-(4-(ethylsulfonyl)piperazine-1-carbonyl)pyridin-2-yl)-1-isopropyl-4,5,6,7-tetrahydro-1H-pyrazolo[4,3-c]pyridine-3-carboxamide]
3	Cc1nn(C)c(=O)n1-c1ccc(N2Cc3c(C(=O)NCc4ccc(NC(=O)N5CCN(C)CC5)cc4)nn(C(C)C)c3[C@@H](C)C2)nc1 [Example 613, (S)-5-(5-(1,3-dimethyl-5-oxo-1,5-dihydro-4H-1,2,4-triazol-4-yl)pyridin-2-yl)-1-isopropyl-7-methyl-N-(4-(4-methylpiperazine-1-carboxamido)benzyl)-4,5,6,7-tetrahydro-1H-pyrazolo[4,3-c]pyridine-3-carboxamide]
1	CC(C)n1nc(C(=O)NCc2ccc(NC(=O)N3CCC4(CCCN(C)C4)CC3)c(F)c2)c2c1[C@@H](C)CN(c1ccc(C(=O)N(C)C)cc1)C2 [Example 644, (S)-N-(4-((5-(4-(dimethylcarbamoyl)phenyl)-1-isopropyl-7-methyl-4,5,6,7-tetrahydro-1H-pyrazolo[4,3-c]pyridine-3-carboxamido)methyl)-2-fluorophenyl)-2-methyl-2,9-diazaspiro[5.5]undecane-9-carboxamide]
1	CC(C)n1nc(C(=O)NCc2ccc(NC(=O)N3CCC4(CC3)CN(C)C4)c(F)c2)c2c1[C@@H](C)CN(c1ccc(C(=O)N(C)C)cc1)C2 [Example 647, (S)-5-(4-(dimethylcarbamoyl)phenyl)-N-(3-fluoro-4-(2-methyl-2,7-diazaspiro[3.5]nonane-7-carboxamido)benzyl)-1-isopropyl-7-methyl-4,5,6,7-tetrahydro-1H-pyrazolo[4,3-c]pyridine-3-carboxamide]
1	CC(C)n1nc(C(=O)NCc2ccc(NC(=O)N3CCN(C)C4(CC4)C3)c(F)c2)c2c1[C@@H](C)CN(c1ccc(C(=O)N(C)C)cc1)C2 [Example 648, (S)-5-(4-(dimethylcarbamoyl)phenyl)-N-(3-fluoro-4-(4-methyl-4,7-diazaspiro[2.5]octane-7-carboxamido)benzyl)-1-isopropyl-7-methyl-4,5,6,7-tetrahydro-1H-pyrazolo[4,3-c]pyridine-3-carboxamide]
1	CC(C)n1nc(C(=O)NCc2ccc(NC(=O)N3CCN(C)CC3)cc2)c2c1[C@@H](C)CN(c1ccc3c(c1)CCCN(C)C3=O)C2 [Example 651, (S)-1-isopropyl-7-methyl-5-(2-methyl-1-oxo-2,3,4,5-tetrahydro-1H-benzo[c]azepin-7-yl)-N-(4-(4-methylpiperazine-1-carboxamido)benzyl)-4,5,6,7-tetrahydro-1H-pyrazolo[4,3-c]pyridine-3-carboxamide]
5	Cc1nn(C)c(=O)n1-c1ccc(N2Cc3c(C(=O)NCc4ccc(NC(=O)N5CCN(C)CC5)cc4)nn(C(C)C)c3[C@@H](C)C2)cc1 [Example 652, (S)-5-(4-(1,3-dimethyl-5-oxo-1,5-dihydro-4H-1,2,4-triazol-4-yl)phenyl)-1-isopropyl-7-methyl-N-(4-(4-methylpiperazine-1-carboxamido)benzyl)-4,5,6,7-tetrahydro-1H-pyrazolo[4,3-c]pyridine-3-carboxamide]
3	CC(C)n1nc(C(=O)NCc2ccc(NC(=O)N3CCN(C)CC3)cc2)c2c1[C@@H](C)CN(c1ccc(-c3nccn3C3CC3)cn1)C2 [Example 653, (S)-5-(5-(1-cyclopropyl-1H-imidazol-2-yl)pyridin-2-yl)-1-isopropyl-7-methyl-N-(4-(4-methylpiperazine-1-carboxamido)benzyl)-4,5,6,7-tetrahydro-1H-pyrazolo[4,3-c]pyridine-3-carboxamide]
2	CC(C)n1nc(C(=O)NCc2ccc(NC(=O)N3CCN(C)CC3)cc2)c2c1[C@@H](C)CN(c1ccc(-c3nccn3C(F)F)cn1)C2 [Example 654, (S)-5-(5-(1-(difluoromethyl)-1H-imidazol-2-yl)pyridin-2-yl)-1-isopropyl-7-methyl-N-(4-(4-methylpiperazine-1-carboxamido)benzyl)-4,5,6,7-tetrahydro-1H-pyrazolo[4,3-c]pyridine-3-carboxamide]
